Test results published in patent publication US20200222418A1, “USE OF PHENOTHIAZINE DERIVATIVE IN THE TREATMENT OF INFECTION CAUSED BY BACTERIA CARRYING TYPE IV PILI” (priority 2017, published 2020).

Tested on: N. meningitidis 2C4.3 wild type strain type IV pili
Test: Surface expression of type IV pili by transmission electron microscopy, wild type
Type: cell-based, Neisseria meningitidis
Details: 50 μM Trifluoperazine for 30 minutes, wild type 2C4.3
Method: N. meningitidis 2C4.3 wild type strain and the isogenic derivative mutant PilT ([…]PiIT) were grown in liquid culture […] electron microscopy. Arrows point at bundles of type IV pili expressed at the bacterial surface.
N. meninigitidis 2C4.3 strain and the isogenic derivative mutant PilT, where the pilT gene was interrupted by an erythromycin-resistance cassette (Pujol et al., 1999), were grown in suspension in DMEM medium supplemented with 10% heat-inactivated fetal calf serum. PilT belongs to a highly conserved protein family homologous to AAA-type motor proteins and is proposed to cause the retraction of type IV pili by disassembling the pilin subunits at the base of the fiber (Morand et al., 2004). […] The effect on bacterial aggregates were visualized over time using a phase-contrast microscope or the bacterial suspensions were fixed in 4% Paraformaldehyde for 10 min, centrifuged at 1000 rpm for 5 minutes and the bacterial pellets washed in PBS. After negative staining with 1% phosphotungstic acid, bacteria were analysed by transmission electron microscopy, using a JEOL 1011 microscope.

CN1CCN(CCCN2c3ccccc3Sc3ccc(C(F)(F)F)cc32)CC1 [Trifluoperazine]
type IV pili expressed on bacterial surface: no longer observed
